Experimental findings from PubChem BioAssay (NCI) are described below.

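Five concentrations, 48 hours, 96-well plates. GI50 is the concentration that inhibits growth by half. TGI denotes the concentration required for complete inhibition of growth.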

Among the test systems are TK-10 renal; OVCAR-8 ovarian; HS 578T breast; MOLT-4 leukemia; OVCAR-5 ovarian; MDA-MB-435; RPMI-8226 leukemia; OVCAR-4 ovarian; SF-539 CNS; MALME-3M melanoma.
Assay in all cases: DTP human tumour cell line panel, 48 h

`Cc1nc2c(Cl)cc(Cl)cc2c2c1CCO2`: the TGI with TK-10 renal, in the assay on OVCAR-8 ovarian, in the assay on HS 578T breast, in the assay with MOLT-4 leukemia, in the assay with OVCAR-5 ovarian and with MDA-MB-435 was above 100 µM each time. Besides, the TGI in the assay with RPMI-8226 leukemia, in the assay on OVCAR-4 ovarian, in the assay on SF-539 CNS and in the assay on MALME-3M melanoma was above 100 µM throughout.
`N=c1oc2ccc3ccccc3c2cc1-c1nc2ccccc2c(=O)[nH]1`: the TGI in the assay on TK-10 renal is 90.4 µM; with OVCAR-8 ovarian, above 100 µM; with HS 578T breast, 87.6 µM; with MOLT-4 leukemia, above 100 µM; in the assay on OVCAR-5 ovarian it was above 100 µM; in the assay with MDA-MB-435 it was above 100 µM. The TGI in the assay with RPMI-8226 leukemia is above 100 µM; in the assay on OVCAR-4 ovarian, 67.2 µM; in the assay with SF-539 CNS it was above 100 µM; in the assay with MALME-3M melanoma it was above 100 µM.
As for `COc1cc(C[C@@]2(C)[C@@H]3CCC[C@H](CO)[C@@]3(C)CC[C@@H]2C)c(Cl)c(OC)c1`, the TGI with TK-10 renal was determined as 35.1 µM; in the assay on OVCAR-8 ovarian it was 31.7 µM; in the assay on HS 578T breast it was 47.5 µM; with MOLT-4 leukemia, 44.6 µM; in the assay with OVCAR-5 ovarian, 32.9 µM; in the assay on MDA-MB-435 it was 27.1 µM. Further, the TGI was 76.2 µM with RPMI-8226 leukemia, 33.3 µM with OVCAR-4 ovarian, 29.4 µM in the assay with SF-539 CNS and 32 µM with MALME-3M melanoma.
Regarding `Cc1[nH]n(-c2nc(-c3ccccc3)cc(=O)[nH]2)c(=O)c1CCO`, the TGI in the assay with TK-10 renal, in the assay on OVCAR-8 ovarian, with HS 578T breast, in the assay on MOLT-4 leukemia, in the assay with OVCAR-5 ovarian and with MDA-MB-435 was above 100 µM each time. Further, the TGI in the assay on RPMI-8226 leukemia, with OVCAR-4 ovarian, in the assay with SF-539 CNS and with MALME-3M melanoma was above 100 µM in each case.
Regarding `ClCCCN1CCN(CCCl)CC1`, the TGI in the assay on TK-10 renal is above 903 µM; in the assay with OVCAR-8 ovarian, 348 µM; in the assay with HS 578T breast, 885 µM; with MOLT-4 leukemia, 110 µM; in the assay on OVCAR-5 ovarian it was 737 µM; in the assay with MDA-MB-435 it was above 930 µM. The TGI in the assay with RPMI-8226 leukemia is 743 µM; in the assay with OVCAR-4 ovarian, 430 µM; in the assay on SF-539 CNS, 233 µM; in the assay with MALME-3M melanoma it was 390 µM. The figures for the GI50 with MOLT-4 leukemia and in the assay on SF-539 CNS were 1.39 µM and 27.9 µM, respectively.
For `Nc1cc(C2CCCc3c2[nH]c2ccccc32)ccc1O` (configuration not stated), the TGI with TK-10 renal is above 100 µM; in the assay with OVCAR-8 ovarian it was above 100 µM; with HS 578T breast it was above 100 µM; with MOLT-4 leukemia it was 91.2 µM; in the assay with OVCAR-5 ovarian, above 100 µM; in the assay on MDA-MB-435, 33.2 µM. In addition, the TGI was 54.9 µM in the assay with RPMI-8226 leukemia, above 100 µM with OVCAR-4 ovarian, above 100 µM with SF-539 CNS and above 100 µM in the assay with MALME-3M melanoma.
On to `O=[N+]([O-])c1ccc2c(c1)nc1n2C(c2c(F)cccc2F)SC1` (configuration not stated), for which the TGI with TK-10 renal, with OVCAR-8 ovarian, in the assay with HS 578T breast, in the assay on MOLT-4 leukemia, with OVCAR-5 ovarian and in the assay on MDA-MB-435 was above 100 µM each time. The TGI in the assay on RPMI-8226 leukemia, with OVCAR-4 ovarian, in the assay with SF-539 CNS and in the assay with MALME-3M melanoma was above 100 µM each time.
As to `CN1C/C(=C\c2cccs2)C2=NN(c3ccccc3)C(c3cccs3)C2C1` (configuration not stated), the TGI in the assay with TK-10 renal is above 100 µM; in the assay with OVCAR-8 ovarian, above 100 µM; in the assay on HS 578T breast it was above 100 µM; in the assay on MOLT-4 leukemia it was above 100 µM; with OVCAR-5 ovarian, above 100 µM; in the assay on MDA-MB-435 it was 3.86 µM. The TGI in the assay on RPMI-8226 leukemia is above 100 µM; in the assay on OVCAR-4 ovarian it was above 100 µM; in the assay with SF-539 CNS, above 100 µM; in the assay on MALME-3M melanoma it was above 51.1 µM.
`Nc1cc(OCC2CCCCC2)nc(N)n1`: the TGI in the assay with TK-10 renal, in the assay on OVCAR-8 ovarian, in the assay with HS 578T breast, in the assay with MOLT-4 leukemia, with OVCAR-5 ovarian and in the assay with MDA-MB-435 was above 100 µM throughout. Moreover, the TGI with RPMI-8226 leukemia, in the assay with OVCAR-4 ovarian, with SF-539 CNS and in the assay with MALME-3M melanoma was above 100 µM throughout.
As for `Nc1cc(CO)cc(Nc2c3ccccc3nc3ccccc23)c1`, the TGI in the assay with TK-10 renal was 30.1 µM; with OVCAR-8 ovarian, 29.5 µM; in the assay on HS 578T breast, 67.8 µM; with MOLT-4 leukemia, above 100 µM; in the assay with OVCAR-5 ovarian it was 32.2 µM; in the assay with MDA-MB-435, 32.6 µM. Besides, the TGI with RPMI-8226 leukemia was above 100 µM; in the assay on OVCAR-4 ovarian, 29.7 µM; in the assay with SF-539 CNS it was 32 µM; in the assay on MALME-3M melanoma, 31.8 µM.
`COc1ccc(-c2c(C#N)c(N)[nH]c(=S)c2C#N)cc1`: the TGI in the assay with TK-10 renal is above 100 µM; in the assay with OVCAR-8 ovarian it was above 100 µM; with HS 578T breast, 66.6 µM; in the assay on MOLT-4 leukemia, above 100 µM; in the assay with OVCAR-5 ovarian it was above 100 µM; in the assay on MDA-MB-435, 95.5 µM. For the same compound, the TGI is 74.2 µM with RPMI-8226 leukemia, above 100 µM in the assay on OVCAR-4 ovarian, above 100 µM in the assay on SF-539 CNS and 86 µM in the assay with MALME-3M melanoma.
For `CS(=O)(=O)OCCN(CCOS(C)(=O)=O)c1ccc(C=Nc2ccc(-c3csc(Cc4ccccc4)n3)cc2)c(Cl)c1`, the TGI in the assay on TK-10 renal was above 100 µM; with OVCAR-8 ovarian, above 66 µM; in the assay on HS 578T breast, 76.7 µM; in the assay on MOLT-4 leukemia it was above 87.9 µM; in the assay with OVCAR-5 ovarian, 99.1 µM; in the assay on MDA-MB-435, above 78.2 µM. The TGI in the assay with RPMI-8226 leukemia was above 100 µM; in the assay on OVCAR-4 ovarian, above 100 µM; in the assay on SF-539 CNS, above 59.6 µM; in the assay with MALME-3M melanoma, above 72.8 µM.
As for `CCCC(=O)OCC1OC(n2cc(F)c(=O)[nH]c2=O)CC1OC(=O)CCC` (configuration not stated), the TGI in the assay with TK-10 renal, with OVCAR-8 ovarian, in the assay on HS 578T breast, with MOLT-4 leukemia, with OVCAR-5 ovarian and with MDA-MB-435 was above 10 µM each time. For the same compound, the TGI in the assay with RPMI-8226 leukemia was above 10 µM; with OVCAR-4 ovarian it was above 10 µM; with SF-539 CNS, 0.281 µM; with MALME-3M melanoma it was above 10 µM.

As a reminder, the TGI is the concentration giving total growth inhibition. For orientation: GI50 means the concentration that inhibits growth by half.
